Test results reported in patent US6586457B2, “Methods for inhibiting bone resorption” (Merck & Co., Inc., priority 1998, dated 2003).
Entries after “also recorded” stand apart in the source; their conditions may differ.

What was measured:
[1] = tested on: EP4 mRNA; assay: EP4 mRNA levels in RP-1 periosteal cells (Northern blot); type: cell-based, rat; conditions: 10^-6 M
Procedure: (§1) RP-1 periosteal cells are spontaneously immortalized from primary cultures of periosteal cells from tibae of 4-week old Sprague-Dawley rats and are cultured in DMEM (BRL, Gaithersburg, Md.) with 10% fetal bovine serum (JRH Biosciences, Lenexa, Kans.). […] Total RNA is extracted from the tibial metaphysis or diaphysis and calvaria using a guanidinium isothiocyanate-phenol-chloroform method after pulverizing frozen bone samples by a tissue homogenizer. See P. Chomczynski et al., Single-step method of RNA isolation by acid guanidium thiocyanate-phenol-chloroform extraction., Analyt Biochem, 162, 156-159 (1987), which is incorporated by reference herein in its entirety. RNA samples ([…]) are separated on 0.9% agarose/formaldehyde gels and transferred onto nylon membranes (Boehringer Mannheim, Germany). Membranes are prehybridized in Hybrisol I (Oncor, Gaithersburg, Md.) and 0.5 mg/ml sonicated salmon sperm DNA (Boehringer) at 42° C. for 3 hours and are hybridized at 42° C. with rat EP2 and mouse EP4 cDNA probes labeled with [^32P]-dCTP (Amersham, Buckinghamshire, UK) by random priming using the rediprime kit (Amersham). After hybridization, membranes are washed 4 times in 2×SSC+0.1% SDS at room temperature for a total of 1 hour and once with 0.2×SSC+0.1% SDS at 55° C. for 1 hour and then exposed to Kodak XAR 2 film at −70° C. using intensifying screens. […]

[2] = tested on: EP4 mRNA; assay: EP4 mRNA levels in RCT-3 cells (Northern blot); type: cell-based, rat
Procedure: (§2) RCT-1 and RCT-3 are clonal cell lines immortalized by SV-40 large T antigen from cells released from fetal rat calvair by a cmbination collagenase/hyaluronidase digestion. RCT-1 cells, derived from cells released during the first 10 minutes of digestion (fraction I), are cultured in RPMI 1640 medium (BRL) with 10% fetal bovine serum and 0.4 mg/ml G418 (BRL). […] RCT-3 cells, immortalized from osteoblast-enriched fraction III cells, are cultured in F-12 medium (BRL) with 5% Fetal bovine serum and 0.4 mg/ml G418. TRAB-11 cells are also immortalized by SV40 large T antigen from adult rat tibia and are cultured in RPMI 1640 medium with 10% FBS and 0.4 mg/ml G418. ROS 17/2.8 rat osteosarcoma cells are cultured in F-12 containing 5% FBS. Osteoblast-enriched (fraction III) primary fetal rat calvaria cells are obtained by collagenase/hyaluronidase digestion of calvariae of 19 day-old rat fetuses. See Rodan et al., Growth stimulation of rat calvaria osteoblastic cells by acidic FGF, Endocrinology, 121, 1919-1923 (1987), which is incorporated by reference herein in its entirety. Cells are released during 30-50 minutes digestion (fraction III) and are cultured in F-12 medium containing 5% FBS. Total RNA is extracted from the tibial metaphysis or diaphysis and calvaria using a guanidinium isothiocyanate-phenol-chloroform method after pulverizing frozen bone samples by a tissue homogenizer. […]

[3] = tested on: EP2 mRNA; assay: EP2 mRNA expression in RP-1 cells (Northern blot); type: cell-based, rat
Procedure: as §1

[4] = tested on: ROS 17/2.8 cells; assay: Intracellular cAMP in ROS 17/2.8 cells; type: cell-based, rat
Procedure: as §2, with “FBS.” for “FBS. Total RNA is extracted from the tibial metaphysis or diaphysis and calvaria using a guanidinium isothiocyanate-phenol-chloroform method after pulverizing frozen bone samples by a tissue homogenizer.”

[5] = tested on: RCT-3 cells; assay: Intracellular cAMP in RCT-3 cells; type: cell-based, rat
Procedure: as §2, with “FBS.” for “FBS. Total RNA is extracted from the tibial metaphysis or diaphysis and calvaria using a guanidinium isothiocyanate-phenol-chloroform method after pulverizing frozen bone samples by a tissue homogenizer.”

[6] = tested on: TRAB-11 cells; assay: Intracellular cAMP in TRAB-11 cells; type: cell-based, rat
Procedure: as §2, with “FBS.” for “FBS. Total RNA is extracted from the tibial metaphysis or diaphysis and calvaria using a guanidinium isothiocyanate-phenol-chloroform method after pulverizing frozen bone samples by a tissue homogenizer.”

[7] = tested on: EP4 mRNA; assay: EP4 mRNA levels in vivo in bone tissue after systemic administration (Northern blot); set-up: species or system rat
Procedure: For mRNA localization experiments, 5-week old Sprague-Dawley rats (Charles River) are euthanized by CO2, their tibiae and calvariae are excised, cleaned of soft tissues and frozen immediately in liquid nitrogen. For EP4 regulation experiments, 6-week old rats are given a single injection of either vehicle (7% ethanol in sterile water) or an anabolic dose of PGE2 (Cayman Chemical, Ann Arbor, Mich.), 3-6 mg/kg in the same vehicle) intraperitoneally. Animals are euthenized at several time points post-injection and their tibiae and calvariae, as well as samples from lung and kidney tissues are frozen in liquid nitrogen. Total RNA is extracted from the tibial metaphysis or diaphysis and calvaria using a guanidinium isothiocyanate-phenol-chloroform method after pulverizing frozen bone samples by a tissue homogenizer. See P. Chomczynski et al., Single-step method of RNA isolation by acid guanidium thiocyanate-phenol-chloroform extraction., Analyt Biochem, 162, 156-159 (1987), which is incorporated by reference herein in its entirety. RNA samples ([…]) are separated on 0.9% agarose/formaldehyde gels and transferred onto nylon membranes (Boehringer Mannheim, Germany). Membranes are prehybridized in Hybrisol I (Oncor, Gaithersburg, Md.) and 0.5 mg/ml sonicated salmon sperm DNA (Boehringer) at 42° C. for 3 hours and are hybridized at 42° C. with rat EP2 and mouse EP4 cDNA probes labeled with [^32P]-dCTP (Amersham, Buckinghamshire, UK) by random priming using the rediprime kit (Amersham). After hybridization, membranes are washed 4 times in 2×SSC+0.1% SDS at room temperature for a total of 1 hour and once with 0.2×SSC+0.1% SDS at 55° C. for 1 hour and then exposed to Kodak XAR 2 film at −70° C. using intensifying screens. After developing the films, bound probes are removed twice with 0.1% SDS at 80° C. and membranes are hybridized with a human GAPDH (Glyceraldehyde 3-Phosphate Dehydrogenase) cDNA probe (purchased from Clontech, Palo Alto, Calif.) for loading control. To examine if PGE2 regulates EP4 mRNA levels in vivo in bone tissue, […] male rats are injected with PGE2 (3-6 mg/Kg).

[8] = tested on: EP2 mRNA; assay: EP2 mRNA in vivo in bone tissue after systemic administration; conditions: RP-1 cells and rat bone tissue
Procedure: For mRNA localization experiments, 5-week old Sprague-Dawley rats (Charles River) are euthanized by CO2, their tibiae and calvariae are excised, cleaned of soft tissues and frozen immediately in liquid nitrogen. For EP4 regulation experiments, 6-week old rats are given a single injection of either vehicle (7% ethanol in sterile water) or an anabolic dose of PGE2 (Cayman Chemical, Ann Arbor, Mich.), 3-6 mg/kg in the same vehicle) intraperitoneally. Animals are euthenized at several time points post-injection and their tibiae and calvariae, as well as samples from lung and kidney tissues are frozen in liquid nitrogen. Total RNA is extracted from the tibial metaphysis or diaphysis and calvaria using a guanidinium isothiocyanate-phenol-chloroform method after pulverizing frozen bone samples by a tissue homogenizer. See P. Chomczynski et al., Single-step method of RNA isolation by acid guanidium thiocyanate-phenol-chloroform extraction., Analyt Biochem, 162, 156-159 (1987), which is incorporated by reference herein in its entirety. RNA samples ([…]) are separated on 0.9% agarose/formaldehyde gels and transferred onto nylon membranes (Boehringer Mannheim, Germany). […]

[9] = tested on: EP4 mRNA; assay: In situ hybridization of EP4 expression in tibial bone marrow cells; type: in vivo, rat; conditions: rats, single anabolic dose
Procedure: For mRNA localization experiments, 5-week old Sprague-Dawley rats (Charles River) are euthanized by CO2, their tibiae and calvariae are excised, cleaned of soft tissues and frozen immediately in liquid nitrogen. For EP4 regulation experiments, 6-week old rats are given a single injection of either vehicle (7% ethanol in sterile water) or an anabolic dose of PGE2 (Cayman Chemical, Ann Arbor, Mich.), 3-6 mg/kg in the same vehicle) intraperitoneally. Animals are euthenized at several time points post-injection and their tibiae and calvariae, as well as samples from lung and kidney tissues are frozen in liquid nitrogen.
Frozen tibiae are sectioned coronally at […] thickness and sections are mounted on charged slides (Probe On Plus, Fisher Scientific, Springfield, N.J.) and are kept at −70° C. until hybridization. cRNA probes are labeled with ^35S-UTPgS (ICN, Costa Mesa, Calif.) using a Riboprobe II kit (Promega Madison, Wis.). Hybridization is performed overnight at 50° C. […]
In situ hybridization is used in order to localize cells expressing EP4 in bone. In control experiment (vehicle-injected) rats, low expression of EP4 was detected in bone marrow cells. […]

[10] = rats, 3-6 mg/Kg, systemic injection
[11] = young adult rats, 3-6 mg/kg, systemic

CCCCCC(O)/C=C/[C@H]1C(O)CC(=O)C1C/C=C\CCCC(=O)O (stereo partly shown) [PGE2]
effect on EP4 mRNA levels [1]: rapidly increases EP4 mRNA levels; also recorded: increases the level of EP4 mRNA | time of peak of EP4 mRNA levels after treatment [1]: 2 h | effect on EP4 mRNA levels [2]: no effect on EP4 mRNA levels | EP2 mRNA expression before or after treatment [3]: not expressed | effect on intracellular cAMP [4]: no effect on intracellular cAMP | effect on intracellular cAMP [5]: markedly induced | effect on intracellular cAMP [6]: markedly induced | effect on EP4 mRNA levels in tibial diaphysis [7, 10]: rapidly increased EP4 mRNA levels | time of peak of EP4 mRNA levels in tibial diaphysis after injection [7, 10]: 2 h | effect on expression of EP4 in tibiae and calvariae [7, 11]: upregulates the expression of EP4 | time of peak of EP4 upregulation in tibiae and calvariae [7, 11]: 1 to 2 h | induction of EP2 mRNA in RP-1 cells and bone tissue [8]: does not include EP2 mRNA | effect on expression of EP4 in bone marrow cells [9]: increasesd the expression of EP4
